Results published in US6534632B2, “Sialidase localized in plasma membrane DNA coding for the same” (priority 1997, dated 2003).
Where two headings read alike, the source gives them in different places.

Tests used:
Type in all cases: biochemical
[1] = molecular target: T1, bovine membrane-bound sialidase (Bos taurus, UniProt O97859); assay: Inhibition, activation and stabilization of purified bovine membrane-bound sialidase; conditions: in words
T1 construct: the sialidase activity was purified by more than 100,000 times from the bovine brain particulate fraction; from tissue; host or cells: bovine brain (particulate/membrane fraction, detergent-solubilized, 10-step chromatographic purification)
T1 sequence (O97859 1-428): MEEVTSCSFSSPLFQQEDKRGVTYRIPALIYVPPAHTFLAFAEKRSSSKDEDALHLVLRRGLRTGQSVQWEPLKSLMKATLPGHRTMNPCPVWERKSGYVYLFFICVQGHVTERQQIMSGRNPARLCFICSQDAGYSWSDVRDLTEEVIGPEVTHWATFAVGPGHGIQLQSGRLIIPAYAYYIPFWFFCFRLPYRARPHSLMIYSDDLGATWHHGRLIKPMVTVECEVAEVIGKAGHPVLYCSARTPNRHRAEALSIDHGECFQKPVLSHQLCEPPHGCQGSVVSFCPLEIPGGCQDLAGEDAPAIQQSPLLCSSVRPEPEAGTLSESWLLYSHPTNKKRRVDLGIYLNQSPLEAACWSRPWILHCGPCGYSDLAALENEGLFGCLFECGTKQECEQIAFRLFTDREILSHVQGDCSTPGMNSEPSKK

[2] = molecular target: T1, bovine membrane-bound sialidase; assay: as above; conditions: for Inhibition of the sialidase: in words; for Inhibition (%): 100 minus residual activity (%)
Procedure: (§1) A reaction system (0.2 ml) contained 50-100 nmol of sialic acid-bound saccharide substrate, 0.2 mg of bovine serum albumin, […] of sodium acetate buffer (pH 4.6), 0.2 mg of Triton X-100, and an enzyme fraction, and a substrate consisting mainly of bovine brain mixed gangliosides (Sigma, Type II) was used.
(§2) A reaction mixture having the aforementioned composition was incubated at 37° C. for 15-60 minutes, and the reaction was stopped by quick freezing. The released sialic acid was quantitated by the thiobarbituric acid method of Warren (Warren L., J. Biol. Chem. 234, 1971-1975, 1959) at 549 nm and 532 nm. In Steps 1, 2, and 7 explained below, the quantitation was performed by the same method after the reaction product was passed through an AGX-2 ion exchange mini column. The amount of the sialic acid (nmol) released per hour was defined as 1 unit. When a synthetic substrate, 4-methylumbelliferyl N-acetylneuraminic acid (4MU-NeuAc) was used as the sialic acid-bound saccharide substrate, Triton X-100 was excluded from the reaction system, and released 4-methylumbelliferone was quantitated by a fluorospectrophotometer.
The numerical values each represent 100 minus (residual activity (%) in the presence of inhibitor).

[3] = molecular target: T1, bovine membrane-bound sialidase; assay: Sialidase activity of purified bovine membrane-bound sialidase for various substrates (substrate specificity); conditions: for Hydrolysis activity (%): relative activity, activity for GD3-ganglioside defined as 100, purified enzyme
Procedure: as §1, §2
The results of investigations about the activity of the enzyme of the present invention for various substrates are shown in Table 2. The numerical values represent relative activity when the activity for the GD3-ganglioside is defined to be 100.

Substrate specificity: whether the sialidase acts on the substrate [3] | Hydrolysis activity (%) [3] [%] | Compound | also measured
acts on | 100 | GD3-ganglioside | –
does not substantially act on | 1 | GM1-ganglioside | –
does not substantially act on | 3 | GM2-ganglioside | –

Continued, compound first:

Compound | Substrate specificity: whether the sialidase acts on the substrate [3] | Hydrolysis activity (%) [3] [%] | also measured
O[C@H](CS)[C@H](O)CS (racemic) [dithiothreitol] | – | – | Stabilization of the sialidase [1]: stabilized
CC(=O)N[C@H]1[C@H]([C@H](O)[C@H](O)CO)OC(C(=O)O)=C[C@@H]1O [2-deoxy-2,3-dehydro-N-acetylneuraminic acid] | – | – | Inhibition of the sialidase [2]: weakly inhibited; Inhibition (%) ([2]; inhibitor 0.2 mM): 45%; Stabilization of the sialidase [1]: stabilized
O=C(O)c1cc[c]([Hg][OH])cc1 [4-Hydroxy mercury benzoate] | – | – | Inhibition of the sialidase [2]: strongly inhibited; Inhibition (%) ([2]; inhibitor 50 μM): 92%
CC(=O)N[C@H]1[C@H]([C@H](O)[C@H](O)CO)OC(Oc2ccc3c(C)cc(=O)oc3c2)(C(=O)O)C[C@@H]1O (some centres unmarked) [4-MUNeuAc, 4-methylumbelliferyl N-acetylneuraminic acid] | weakly acts on | 25 | –
[Cl][Cu][Cl] [CuCl2] | – | – | Inhibition (%) ([2]; inhibitor 1 mM): 95%
[Cu+2] [Cu^2+] | – | – | Inhibition of the sialidase [2]: strongly inhibited
OCC(O)CO [glycerol] | – | – | Stabilization of the sialidase [1]: stabilized
CC(=O)N[C@H]1[C@H]([C@H](O)[C@H](O)CO)O[C@@](O[C@H]2[C@@H](O)[C@@H](CO)O[C@@H](O[C@H]3[C@H](O)[C@@H](O)C(O)O[C@@H]3CO)[C@@H]2O)(C(=O)O)C[C@@H]1O (stereo partly drawn) [α2-3 syalyllactose, α2-3 sialyllactose] | did not act on | 11 | Substrate specificity: whether the sialidase acts on the substrate ([3]; listed as α2-3 sialyllactose): weakly acts on
Fetuin: glycoprotein substrate | does not substantially act on | 2 | –
GD1a-ganglioside | acts on | 56 | –
GM3-ganglioside | acts on | 62 | –
Orosomucoid: glycoprotein substrate | does not substantially act on | 2 | –
Triton X-100 | – | – | Sialidase activity in the presence of surface active agent ([2]; 0.1 to 0.2% of Triton X-100): highly active
